According to article PMC11084959 (International Journal of Molecular Sciences, 2024):
“Also recorded” adds a separate entry of the source. Where a SMILES comes first, the peptide text is derived from it. Bridges are numbered along the chain shown (N, C = ends). Where no end group is shown, it is not given here.

Assays:
[1] = molecular target: T1, recombinant hCaV3.3 channels (Homo sapiens, UniProt Q9P0X4); assay: QPatch whole-cell patch-clamp, CaV3.3; assay type: cell-based
T1 construct: expressed in transfected cells
Method: (§1) The human embryonic kidney 293 (HEK 293) cell lines (from Emmanuel Bourinet, Montpellier, France) stably expressing CaV3.2 or CaV3.3 [41] were cultured under 5% carbon dioxide at 37 °C in Dulbecco’s Modified Eagle Medium (DMEM) Glutamax (Gibco, Life Technologies, Carlsbad, CA, USA) supplemented with 10% (v/v) fetal bovine serum (FBS), 100 U/mL penicillin, 100 μg/mL streptomycin (Gibco, Life Technologies), and 750 μg/mL geneticin (G418) (Gibco, Life Technologies). The Chinese Hamster Ovary (CHO) cell lines (Emmanuel Bourinet, Montpellier, France) expressing CaV3.1 [42] were cultured under 5% carbon dioxide at 37 °C in Alpha Minimum Essential Media (MEM) Glutamax (Gibco, Life Technologies), supplemented with 10% (v/v) fetal bovine serum (FBS) and 300 μg/mL geneticin (G418) (Gibco, Life Technologies). The human neuroblastoma SH-SY5Y cells (Victor Diaz, Goettingen, Germany) were cultured under 5% carbon dioxide at 37 °C in RPMI 1640 antibiotic-free medium (Invitrogen, Carlsbad, CA, USA), supplemented with 15% FBS and 2 mM GlutaMAX™ (Invitrogen). D-PBS (Gibco, Life Technologies) was used to wash the cells, and 0.25% Trypsin-EDTA (Gibco, Life Technologies) was used to detach the cells from the flask surface. They were split in a ratio of 1:5 (ideally 1000 cells/cm^2) when they reached 70–80% confluence (every 2–3 days).
(§2) Whole-cell patch-clamp experiments were performed on an automated electrophysiology platform QPatch 16 X (Sophion Bioscience A/S, Ballerup, Denmark) in a single-hole configuration using 16-channel planar patch chip QPlates (Sophion Bioscience A/S). The extracellular recording solution contained, in mM: TEACl 157, MgCl2 0.5, CaCl2 5, and HEPES 10; pH 7.4 adjusted with TEAOH; and osmolarity 320 mOsm. The intracellular pipette solution contained, in mM: CsF 140, EGTA 1, HEPES 10, and NaCl 10; pH 7.2 adjusted with CsOH; and osmolarity 325 mOsm. […]
(§3) The data were plotted and analyzed using GraphPad Prism v8.0 (GraphPad Software Inc., San Diego, CA, USA). […]

[2] = tested on: L-type CaVs; assay: L-type CaV FLIPR assay in SH-SY5Y cells; assay type: cell-based, human; details: 0.781–200 µM, 1 µM CVID, agonist 90 mM KCl + 5 mM CaCl2, n = 4
Method: as §1, with “D-PBS (Gibco, Life Technologies) was used to wash the cells, and 0.25% Trypsin-EDTA (Gibco, Life Technologies) was used to detach the cells from the flask surface. They were split in a ratio of 1:5 (ideally 1000 cells/cm^2) when they reached 70–80% confluence (every 2–3 days).” left out
(§4) SH-SY5Y cells were seeded into 384-well black wall clear bottom plates at a density of 15,000 cells per well, resulting in 90–95% confluence after 24 h. […] The fluorescence readings were recorded and converted as described previously, and an agonist containing 90 mM KCl + 5 mM CaCl2 was used in the second addition.

[3] = tested on: recombinant hCaV3.1 channel; assay: QPatch whole-cell patch-clamp, CaV3.1; assay type: cell-based; details: human CaV3.1 in CHO cells
Method: as §1, with “They were split in a ratio of 1:5 (ideally 1000 cells/cm^2) when they reached 70–80% confluence (every 2–3 days).” left out
as §3

[4] = tested on: Lucilia cuprina (Australian sheep blowflies); assay: Insecticidal activity against sheep blowflies (injection); assay type: in vivo; details: 1, 4 and 10 μg per fly injected; 10 flies per group; paralytic effects at 0.5, 1, 2 and 24 h
[5] = tested on: human HVA N-type CaV2.2; assay: N-type CaV2.2 FLIPR assay in SH-SY5Y cells; assay type: cell-based; details: 0.781–200 µM, 10 µM nifedipine, agonist 90 mM KCl + 5 mM CaCl2, n = 4
Method: as §1, with “D-PBS (Gibco, Life Technologies) was used to wash the cells, and 0.25% Trypsin-EDTA (Gibco, Life Technologies) was used to detach the cells from the flask surface. They were split in a ratio of 1:5 (ideally 1000 cells/cm^2) when they reached 70–80% confluence (every 2–3 days).” left out
as §4

[6] = molecular target: T2, recombinant hCaV3.2 channels (Homo sapiens, UniProt O95180); assay: QPatch whole-cell patch-clamp, CaV3.2; assay type: cell-based
T2 construct: expressed in transfected cells
Method: as §1, §2, §3

[7] = tested on: T-type CaVs (CaV3.1 and CaV3.2); details: ref [9],[10]; cited from earlier work
Description: Scorpions are venomous arachnids of the order Scorpiones, with around 2798 currently (December 2023) described species distributed on all continents except Antarctica. Scorpion venoms are complex mixtures of peptides, enzymes, mucoproteins, amino acids (aa), nucleotides, lipids, amines, heterocyclic components, inorganic salts, and probably other yet to be described substances. They are rich sources of neurotoxic polypeptides that recognize and bind to ion channels of excitable and non-excitable cells and modulate their functional properties. Based on the specific binding propertie ...

T1 sequence (Q9P0X4 whole entry): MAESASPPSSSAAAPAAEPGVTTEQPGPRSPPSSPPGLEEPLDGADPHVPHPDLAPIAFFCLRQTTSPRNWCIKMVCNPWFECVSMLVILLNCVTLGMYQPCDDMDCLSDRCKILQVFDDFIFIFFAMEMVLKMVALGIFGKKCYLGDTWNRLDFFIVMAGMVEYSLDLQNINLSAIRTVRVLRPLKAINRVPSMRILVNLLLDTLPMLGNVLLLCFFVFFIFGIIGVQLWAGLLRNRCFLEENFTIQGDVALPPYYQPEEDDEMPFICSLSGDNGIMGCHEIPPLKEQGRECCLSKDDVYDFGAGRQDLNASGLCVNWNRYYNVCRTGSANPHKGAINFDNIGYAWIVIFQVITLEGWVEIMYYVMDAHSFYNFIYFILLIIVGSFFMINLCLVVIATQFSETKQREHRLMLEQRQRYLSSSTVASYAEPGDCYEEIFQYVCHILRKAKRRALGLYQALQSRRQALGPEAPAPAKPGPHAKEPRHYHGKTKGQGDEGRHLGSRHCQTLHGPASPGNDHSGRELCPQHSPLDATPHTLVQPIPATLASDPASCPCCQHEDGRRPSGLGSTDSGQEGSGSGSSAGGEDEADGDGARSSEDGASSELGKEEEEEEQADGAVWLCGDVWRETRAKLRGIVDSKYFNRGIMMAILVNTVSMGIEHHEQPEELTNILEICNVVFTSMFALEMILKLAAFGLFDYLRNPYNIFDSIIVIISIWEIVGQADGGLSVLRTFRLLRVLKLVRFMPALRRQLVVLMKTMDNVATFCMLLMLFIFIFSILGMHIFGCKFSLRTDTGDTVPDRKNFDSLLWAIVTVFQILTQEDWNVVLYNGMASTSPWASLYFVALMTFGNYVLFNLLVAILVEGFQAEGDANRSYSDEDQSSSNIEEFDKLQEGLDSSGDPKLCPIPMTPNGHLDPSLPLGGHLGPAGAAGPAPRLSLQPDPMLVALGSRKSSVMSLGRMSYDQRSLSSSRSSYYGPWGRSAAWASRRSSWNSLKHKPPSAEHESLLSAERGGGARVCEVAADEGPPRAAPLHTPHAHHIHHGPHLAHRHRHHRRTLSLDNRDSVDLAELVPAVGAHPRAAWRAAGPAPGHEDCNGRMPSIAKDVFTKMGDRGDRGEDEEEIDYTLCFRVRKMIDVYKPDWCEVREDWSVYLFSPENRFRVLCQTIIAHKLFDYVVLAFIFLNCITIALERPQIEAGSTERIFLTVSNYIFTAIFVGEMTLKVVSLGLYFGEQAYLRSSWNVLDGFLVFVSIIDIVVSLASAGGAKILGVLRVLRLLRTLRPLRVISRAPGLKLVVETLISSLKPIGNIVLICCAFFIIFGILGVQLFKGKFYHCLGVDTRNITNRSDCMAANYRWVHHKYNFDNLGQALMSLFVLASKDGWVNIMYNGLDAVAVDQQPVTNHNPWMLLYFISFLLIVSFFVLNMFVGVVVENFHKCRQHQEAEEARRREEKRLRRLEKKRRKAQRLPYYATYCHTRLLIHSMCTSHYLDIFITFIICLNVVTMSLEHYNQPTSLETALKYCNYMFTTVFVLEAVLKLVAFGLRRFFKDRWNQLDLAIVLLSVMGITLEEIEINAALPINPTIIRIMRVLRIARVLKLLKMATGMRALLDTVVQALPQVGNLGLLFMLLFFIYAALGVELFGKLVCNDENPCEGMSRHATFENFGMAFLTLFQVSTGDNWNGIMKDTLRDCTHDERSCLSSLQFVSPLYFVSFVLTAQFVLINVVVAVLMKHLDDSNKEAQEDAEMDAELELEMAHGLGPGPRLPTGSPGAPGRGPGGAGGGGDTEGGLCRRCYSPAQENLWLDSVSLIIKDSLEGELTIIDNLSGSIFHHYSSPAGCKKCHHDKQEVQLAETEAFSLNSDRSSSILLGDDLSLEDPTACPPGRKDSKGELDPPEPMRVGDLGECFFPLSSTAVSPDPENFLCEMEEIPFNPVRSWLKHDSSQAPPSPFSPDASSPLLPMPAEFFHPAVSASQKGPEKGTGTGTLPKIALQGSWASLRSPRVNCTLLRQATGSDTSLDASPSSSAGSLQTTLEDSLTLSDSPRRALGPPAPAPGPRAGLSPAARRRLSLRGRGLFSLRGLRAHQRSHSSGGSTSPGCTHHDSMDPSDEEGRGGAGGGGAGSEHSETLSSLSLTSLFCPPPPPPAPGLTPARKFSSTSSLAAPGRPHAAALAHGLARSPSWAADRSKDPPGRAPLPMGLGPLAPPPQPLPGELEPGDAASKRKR
T2 sequence (O95180 whole entry): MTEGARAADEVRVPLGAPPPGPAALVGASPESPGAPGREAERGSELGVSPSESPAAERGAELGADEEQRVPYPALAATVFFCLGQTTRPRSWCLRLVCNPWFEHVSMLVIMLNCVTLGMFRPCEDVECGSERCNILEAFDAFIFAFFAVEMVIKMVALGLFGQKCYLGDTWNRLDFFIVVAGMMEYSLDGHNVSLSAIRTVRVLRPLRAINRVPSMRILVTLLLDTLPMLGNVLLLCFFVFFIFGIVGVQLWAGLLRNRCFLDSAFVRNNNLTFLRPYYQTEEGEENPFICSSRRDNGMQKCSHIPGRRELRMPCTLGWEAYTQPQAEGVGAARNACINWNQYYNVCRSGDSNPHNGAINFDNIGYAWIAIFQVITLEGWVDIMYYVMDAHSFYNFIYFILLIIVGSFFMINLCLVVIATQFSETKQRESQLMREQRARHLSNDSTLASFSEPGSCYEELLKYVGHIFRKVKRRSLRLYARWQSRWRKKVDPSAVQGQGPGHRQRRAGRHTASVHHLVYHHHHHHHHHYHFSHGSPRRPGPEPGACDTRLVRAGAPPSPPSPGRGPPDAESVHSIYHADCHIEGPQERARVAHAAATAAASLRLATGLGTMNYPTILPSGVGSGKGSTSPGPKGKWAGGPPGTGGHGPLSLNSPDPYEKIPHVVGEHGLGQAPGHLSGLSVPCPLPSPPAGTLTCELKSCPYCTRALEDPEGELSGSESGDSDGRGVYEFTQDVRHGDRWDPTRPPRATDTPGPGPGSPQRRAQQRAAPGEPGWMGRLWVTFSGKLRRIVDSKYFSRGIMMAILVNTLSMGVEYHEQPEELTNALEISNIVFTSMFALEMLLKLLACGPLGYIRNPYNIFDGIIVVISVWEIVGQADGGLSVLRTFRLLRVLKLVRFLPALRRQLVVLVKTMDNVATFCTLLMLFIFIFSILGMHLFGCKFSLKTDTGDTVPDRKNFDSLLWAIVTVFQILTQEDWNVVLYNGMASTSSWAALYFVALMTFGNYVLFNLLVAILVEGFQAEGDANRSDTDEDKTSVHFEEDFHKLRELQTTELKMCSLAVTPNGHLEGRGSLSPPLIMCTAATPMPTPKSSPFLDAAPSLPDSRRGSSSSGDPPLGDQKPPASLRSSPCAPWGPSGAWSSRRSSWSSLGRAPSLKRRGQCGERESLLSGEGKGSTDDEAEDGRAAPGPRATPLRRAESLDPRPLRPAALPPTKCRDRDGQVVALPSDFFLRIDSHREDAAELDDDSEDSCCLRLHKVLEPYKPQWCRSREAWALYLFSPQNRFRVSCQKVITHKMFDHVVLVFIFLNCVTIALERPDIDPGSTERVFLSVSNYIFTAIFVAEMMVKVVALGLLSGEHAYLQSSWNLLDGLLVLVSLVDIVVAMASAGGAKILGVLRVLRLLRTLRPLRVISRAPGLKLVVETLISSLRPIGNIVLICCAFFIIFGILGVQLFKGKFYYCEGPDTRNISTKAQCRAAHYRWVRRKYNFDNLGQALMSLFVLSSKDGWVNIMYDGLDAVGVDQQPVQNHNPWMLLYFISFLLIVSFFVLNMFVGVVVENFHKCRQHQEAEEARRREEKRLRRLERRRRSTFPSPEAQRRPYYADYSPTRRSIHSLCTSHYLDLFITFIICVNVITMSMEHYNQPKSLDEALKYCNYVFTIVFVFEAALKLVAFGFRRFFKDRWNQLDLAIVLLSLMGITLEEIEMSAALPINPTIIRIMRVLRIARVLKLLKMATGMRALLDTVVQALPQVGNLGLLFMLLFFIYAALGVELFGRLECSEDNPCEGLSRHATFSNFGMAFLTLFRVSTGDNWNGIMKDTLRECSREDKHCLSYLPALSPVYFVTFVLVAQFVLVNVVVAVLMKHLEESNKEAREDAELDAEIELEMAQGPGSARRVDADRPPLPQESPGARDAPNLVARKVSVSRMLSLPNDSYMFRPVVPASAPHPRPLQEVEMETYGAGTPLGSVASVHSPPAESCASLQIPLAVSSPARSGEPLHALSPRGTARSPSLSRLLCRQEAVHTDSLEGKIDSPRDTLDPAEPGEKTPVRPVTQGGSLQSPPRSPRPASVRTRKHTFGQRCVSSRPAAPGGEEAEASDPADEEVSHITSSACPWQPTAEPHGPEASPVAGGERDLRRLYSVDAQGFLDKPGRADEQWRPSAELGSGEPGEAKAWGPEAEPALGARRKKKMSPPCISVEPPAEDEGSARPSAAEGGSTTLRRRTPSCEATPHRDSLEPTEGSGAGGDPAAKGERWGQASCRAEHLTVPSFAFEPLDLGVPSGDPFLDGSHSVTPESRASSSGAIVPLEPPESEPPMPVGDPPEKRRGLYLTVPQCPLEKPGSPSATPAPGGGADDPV

HCTPNSNHCW (disulfide 2-9 (inferred)) [Hf1a-OH]
Effect on CaV3.3 current (in words) ([1]; QPatch, human CaV3.3 in HEK 293 cells): failed to show activity in any of the three subtypes; also recorded: did not show activity against any of the three T-type subtypes | Effect on L-type CaVs [2]: neither form showed activity; also recorded: neither form of ω-Buthitoxin-Hf1a affected N-type or L-type CaVs; also recorded: Neither Hf1a-NH2 nor Hf1a-OH showed activity against L- and N-type HVA CaVs | Effect on CaV3.1 current (in words) [3]: failed to show activity in any of the three subtypes; also recorded: did not show activity against any of the three T-type subtypes | Insecticidal activity against adult sheep blowflies [4]: no insecticidal activity; also recorded: neither Hf1a-OH nor Hf1a-NH2 showed observable insecticidal activity | Effect on N-type CaV2.2 [5]: neither form showed activity; also recorded: neither form of ω-Buthitoxin-Hf1a affected N-type or L-type CaVs; also recorded: Neither Hf1a-NH2 nor Hf1a-OH showed activity against L- and N-type HVA CaVs | Effect on CaV3.2 current (in words) ([6]; QPatch, human CaV3.2 in HEK 293 cells): failed to show activity in any of the three subtypes; also recorded: did not show activity against any of the three T-type subtypes

C[C@@H](O)[C@@H]1NC(=O)[C@@H](NC(=O)[C@@H](N)Cc2c[nH]cn2)CSSC[C@@H](C(=O)N[C@@H](Cc2c[nH]c3ccccc23)C(N)=O)NC(=O)[C@H](Cc2c[nH]cn2)NC(=O)[C@H](CC(N)=O)NC(=O)[C@H](CO)NC(=O)[C@H](CC(N)=O)NC(=O)[C@@H]2CCCN2C1=O [Hf1a-NH2] (H-HCTPNSNHCW-NH2; disulfide 2-9)
inhibition at 25 µM ([1]; 25 μM, holding −90 mV, 200 ms to −10 mV, n = 4, read-out: CaV3.3 current inhibition at 25 μM): 44.6% | IC50 ([1]; partial inhibition, QPatch, holding −90 mV, 200 ms steps to −10 mV, 5 mM CaCl2, 0.1% BSA, pH 7.4, n = 4, means ± SEM, read-out: IC50 (CaV3.3 depolarized currents)): 490 nM | Adverse effects on locomotor performance (24 h post-injection, intraplantar): no adverse effects on locomotor performance | Abnormal motor function during treadmill run (mouse, in vivo): no abnormal motor functions like foot slips were noticed | Distance covered on treadmill (mouse, in vivo): showed no difference | inhibition at 25 µM ([6]; 25 μM, holding −90 mV, 200 ms to −25 mV, n = 4, read-out: CaV3.2 current inhibition at 25 μM): 31.7% | IC50 ([6]; partial inhibition, QPatch, holding −90 mV, 200 ms steps to −25 mV, 5 mM CaCl2, 0.1% BSA, pH 7.4, n = 4, means ± SEM, read-out: IC50 (CaV3.2 depolarized currents)): 1180 nM

B1: kurtoxin (protein, UniProt P58910 1-63, looked up)
Kurtoxin: KIDGYPVDYWNCKRICWYNNKYCNDLCKGLKADSGYCWGWTLSCYCQGLPDNARIKRSGRCRA
Selective binding to T-type CaVs (CaV3.1 and CaV3.2) [7]: first and only scorpion toxin shown to selectively bind T-type CaVs (CaV3.1 and CaV3.2)
